Measured values: US7501529B2, “7-Ethynyl-2,4,9-trithiaadamantane and related methods” (The University of Akron, priority 2003, dated 2009)

Assays:
[1] = comparison value, source not stated; cited from earlier work
[2] = Solubility in water / D2O, observed during 1H NMR experiments; assay type: physicochemical
Excerpt: The formation of inclusion complex between 7-hydroxycarbonyl-2,4,9-trithiaadamantane and β-cyclodextrin was evident in the 1H NMR experiments. […] Thus, a 1:1 mixture of 7-hydroxycarbonyl-2,4,9-trithiaadamantane and β-cyclodextrin (3.5×10^−3 M) formed a clear solution in D2O in an NMR sampling tube. At the low concentration limit, this change in the solubility of 7-hydroxycarbonyl-2,4,9-trithiaadamantane in water is attributed to the molecular interactions between water insoluble 7-hydroxycarbonyl-2,4,9-trithiaadamantane and water soluble β-cyclodextrin. […] Similar phenomena in cyclodextrin inclusion complexes have been observed previously. Without being bound by theory, these spectral changes were attributed at least in part to the dynamic exchanges between uncomplexed species and the intimately included 7-hydroxycarbonyl-2,4,9-trithiaadamantane in β-cyclodextrin in aqueous solutions. […] The simultaneous observation of changes in the chemical shift of the β-cyclodextrin at H-3 and H-5 also indicated the binding interaction was dominated by the inclusion of the 7-hydroxycarbonyl-2,4,9-trithiaadamantane guest inside the host β-cyclodextrin cavity.

[3] = 1H NMR titration, stability constant of the inclusion complex (Benesi-Hildebrand); assay type: physicochemical
Procedure: The equilibrium constant of the formation of the inclusion complex provides a relative measurement of the thermodynamic driving force for the guest and host binding. NMR Titration was performed by measuring chemical shift changes as a function of the relative concentrations of the host and guest. The changes of the chemical shifts were measured for the H-3 and H-5 peaks of the host and Ha and Hb of the guest in the following scheme, which represents the inclusion complex formation of 7-hydroxycarbonyl-2,4,9-trithiaadamantane with β-cyclodextrin:
The data in Table 1 were also used to calculate the stability constant of the 7-hydroxycarbonyl-2,4,9-trithiaadamantane/β-cyclodextrin inclusion complex by applying the Benesi-Hildebrand equation having the formula: 1/Δδi=(1/KΔδc)(1/Hi)+1/Δδc where the Δδi represents the observed chemical shift difference between the free guest and complexed guest, Hi represents the total host concentration, and Δδc represents the guest chemical shift difference between a completely complexed state and completely free state. In order to use Benesi-Hildebrand equation, the host molecule must be present in excess. The stability constant was determined from simultaneous fits of three chemical shift data sets. The stability constant of 7-hydroxycarbonyl-2,4,9-trithiaadamantane/β-cyclodextrin in water was thus measured to be 1550 M^−1 (logK=3.19). […]

Structure (SMILES): O=C(O)C12CC3CC(CC(C3)C1)C2 [1-adamantane carboxylic acid]
- stability constant K of the β-cyclodextrin inclusion complex (comparison) [1]: 188 M⁻¹

Structure (SMILES): O=C(O)C12CC3SC(C1)SC(C2)S3 [7-hydroxycarbonyl-2,4,9-trithiaadamantane]
- solubility in water ([2]; water, without β-cyclodextrin): dissolves only slightly
- change of solubility in water with β-cyclodextrin present ([2]; β-cyclodextrin present, 1:1 mixture (3.5×10^−3 M) formed a clear solution in D2O): increased visibly
- association (stability) constant of the inclusion complex with β-cyclodextrin ([3]; 1:1 complex, in water (D2O), room temperature, 1H NMR titration): 1550 M⁻¹
- logK of the stability constant of the β-cyclodextrin inclusion complex ([3]; in water): 3.19
